# US12528818B2, “Compositions and methods for inhibition of RAS” (Leidos Biomedical Research, Inc., priority 2021, dated 2026)
# Test system: pERK in NCI-H358 cells
# Test: Cell-based pERK HTRF assay (pERK inhibition in H358 cells)
# Details: Homo sapiens, NCI-H358, 0.5 h, pERK inhibition IC50, NCI-H358 cells, 30 min incubation; read-out: PERK in H358 cell
row,SMILES,IC50 [µM]
1,C=CC(=O)N1CC[C@@H]2[C@H]1CN2c1nc(OCC23CCCN2CCC3)nc2c(F)c(-c3ccc(F)c4sc(N)nc34)c(Cl)cc12 [Compound 65],0.1 to 1
2,CC#CC(=O)N1CCN(c2nc(OCC34CCCN3CC(C)(C)C4)nc3c(F)c(-c4ccc(F)c5sc(N)nc45)c(C(F)(F)F)cc23)CC1 (stereo not drawn) [Compound 170],0.1 to 1
3,"C=CC(=O)N1CC[C@@H](N(C)c2ncnc3c(F)c(-c4ccc(F)c5sc(N)c(C#N)c45)c(C(F)(F)F)cc23)C1 [Compound 383, 4-(4-(((R)-1-acryloylpyrrolidin-3-yl)(methyl)amino)-8-fluoro-6-(trifluoromethyl)quinazolin-7-yl)-2-amino-7-fluorobenzo[b]thiophene-3-carbonitrile]",< 0.1
4,CC#CC(=O)N1CCN(c2nc(OCC34CCCN3CCC4)nc3c(F)c(-c4ccc(F)c5sc(N)nc45)c(C(F)(F)F)cc23)CC1 [Compound 134],0.1 to 1
5,C=CC(=O)N1[C@H](C)CN(c2nc(OC[C@@]34CCCN3C[C@@H](F)C4)nc3c(F)c(-c4ccc(F)c5sc(N)nc45)c(C(F)(F)F)cc23)C[C@@H]1C [Compound 224],< 0.1
6,C=CC(=O)N1CC[C@H](N(C)c2nc(OC[C@@]34CCCN3C[C@H](F)C4)nc3c(F)c(-c4ccc(F)c5sc(N)nc45)c(C(F)(F)F)cc23)C1 [Compound 188],0.1 to 1
7,C=CC(=O)N1CC(N(C)c2nc(OC[C@@]34CCCN3C[C@H](OC)C4)nc3c(F)c(-c4ccc(F)c5sc(N)nc45)c(C(F)(F)F)cc23)C1 [Compound 201],0.1 to 1
8,C=CC(=O)N1CC[C@@H](N(CC)c2ncnc3c(F)c(-c4ccc(F)c5sc(N)nc45)c(C(F)(F)F)cc23)C1 [Compound 248],0.1 to 1

# Continued, values first:
row,IC50 [µM],SMILES
1,< 0.1,C=CC(=O)N1CCC(N(C)c2nc(OC[C@@H]3CC4(CC4)CN3C)nc3c(F)c(-c4ccc(F)c5sc(N)c(C#N)c45)c(C(F)(F)F)cc23)[C@H]1COC (stereo partly drawn) [Compound 456]
2,< 0.1,C=CC(=O)N1CCC(N(C)c2nc(OC[C@@H]3CCCN3C)nc3c(F)c(-c4ccc(F)c5sc(N)c(C#N)c45)c(Cl)cc23)[C@H]1C (stereo partly drawn) [Compound 419]
3,> 1,C=CC(=O)N1CC[C@@H](N(C)c2nc(OCC)nc3c(F)c(-c4ccc(F)c5sc(N)c(C#N)c45)ccc23)[C@H]1C [Compound 463]
4,< 0.1,C=CC(=O)N1CC[C@@H](N(C)c2nc(N3CC(N4CC5(CC5)C4)C3)nc3c(F)c(-c4ccc(F)c5sc(N)c(C#N)c45)c(C(F)(F)F)cc23)C1 [Compound 340]
5,< 0.1,C=CC(=O)N1CCC(N(C)c2nc(OC[C@@H]3C[C@@H](OC)CN3C)nc3c(F)c(-c4ccc(F)c5sc(N)c(C#N)c45)ccc23)[C@H]1C (stereo partly drawn) [Compound 430]
6,< 0.1,C=CC(=O)N1C[C@@H](F)[C@@H](N(C)c2nc(OC[C@@H]3C[C@@H](F)CN3C)nc3cc(-c4ccc(F)c5sc(N)nc45)c(C(F)(F)F)cc23)C1 [Compound 355]
7,< 0.1,C=CC(=O)N1C[C@H](F)[C@@H](N(C)c2nc(OC[C@@]34CCCN3C[C@H](F)C4)nc3cc(-c4ccc(F)c5sc(N)c(C#N)c45)c(C(F)(F)F)cc23)C1 [Compound 320]
8,< 0.1,C=CC(=O)N1CC[C@@H](N(C)c2nc(OC[C@@]34CCCN3C[C@H](F)C4)nc3cc(-c4ccc(F)c5sc(N)nc45)c(C(F)(F)F)cc23)C1 [Compound 300]
9,0.1 to 1,C=CC(=O)N1CCC(N(C)c2nc(OC[C@@H]3CCCN3C)nc3cc(-c4ccc(F)c5sc(N)c(C#N)c45)c(C#N)cc23)[C@H]1COC (stereo partly drawn) [Compound 455]
10,0.1 to 1,C=CC(=O)N1CCC(N(C)c2nc(OC[C@@H]3CC4(CC4)CN3C)nc3cc(-c4ccc(F)c5sc(N)c(C#N)c45)c(C#N)cc23)[C@H]1COC (stereo partly drawn) [Compound 446]

# Same assay, conditions: pERK inhibition IC50, NCI-H358 cells, 30 min incubation; read-out: PERK in H358 cell
row,IC50 [µM],SMILES
1,< 0.1,"C=CC(=O)N1CC[C@@H](N(C)c2nc(OC[C@@H]3CC(F)(F)CN3C)nc3c(F)c(-c4ccc(F)c5sc(N)nc45)c(C(F)(F)F)cc23)C1 (atropisomer, axis not shown) [Compound 228]"
2,0.1 to 1,"C=CC(=O)N1C[C@H](N(C)c2ncnc3c(F)c(-c4ccc(F)c5sc(N)nc45)c(C(F)(F)F)cc23)C[C@H]1C (atropisomer, axis not shown) [Compound 250]"
3,0.1 to 1,"C=CC(=O)N1C[C@H](C)N(c2nc(OC[C@@]34CCCN3C[C@H](F)C4)nc3c(F)c(-c4ccc(F)c5sc(N)c(C#N)c45)c(C(F)(F)F)cc23)C[C@H]1C (single isomer, unassigned) [Compound 314]"
